Assay results from patent publication US11197859B2 (AUTIFONY THERAPEUTICS LIMITED, priority 2010, dated 2021).

Molecular target: T1, human Kv3.2 channels (hKv3.2) (Homo sapiens, UniProt Q96PR1)
T1 construct: expressed in transfected cells
T1 sequence (Q96PR1 1-638): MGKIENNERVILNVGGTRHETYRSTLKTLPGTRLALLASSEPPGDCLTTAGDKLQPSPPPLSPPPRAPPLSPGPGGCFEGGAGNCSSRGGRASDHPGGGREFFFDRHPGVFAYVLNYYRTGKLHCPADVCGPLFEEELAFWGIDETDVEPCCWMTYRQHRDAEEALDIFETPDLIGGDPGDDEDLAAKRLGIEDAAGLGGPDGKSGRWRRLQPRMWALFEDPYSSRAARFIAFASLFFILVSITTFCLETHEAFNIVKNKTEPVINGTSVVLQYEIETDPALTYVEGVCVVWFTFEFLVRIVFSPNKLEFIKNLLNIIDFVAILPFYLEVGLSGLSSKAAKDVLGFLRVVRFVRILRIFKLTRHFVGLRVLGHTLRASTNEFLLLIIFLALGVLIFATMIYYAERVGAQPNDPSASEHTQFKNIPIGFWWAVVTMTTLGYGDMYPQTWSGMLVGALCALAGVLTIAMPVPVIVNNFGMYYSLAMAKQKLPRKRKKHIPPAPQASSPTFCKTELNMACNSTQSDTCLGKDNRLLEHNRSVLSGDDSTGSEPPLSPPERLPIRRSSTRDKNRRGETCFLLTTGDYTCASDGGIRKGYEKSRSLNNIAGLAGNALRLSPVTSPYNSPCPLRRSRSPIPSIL
Experiment: IonWorks Quattro electrophysiology, hKv3.2 currents, activation time constant (Tauact)
Format: cell-based
Details: hKv3.2, -15 mV pulse; compound 6.25 μM (concentration giving ~0.3 nA current)
Description: The ability of the compounds of the disclosure to modulate the voltage-gated potassium channel subtypes Kv3.2/3.1 may be determined using the following assay.
To assess compound effects on human Kv3.2 channels (hKv3.2), a stable cell line expressing hKv3.2 was created by transfecting Chinese Hamster Ovary (CHO)-K1 cells with a pCIH5-hKv3.2 vector. Cells were cultured in DMEM/F12 medium supplemented by 10% Foetal Bovine Serum, 1× non-essential amino acids (Invitrogen) and 500 ug/ml of Hygromycin-B (Invitrogen). Cells were grown and maintained at 37° C. in a humidified environment containing 5% CO2 in air.
The day of the experiment, cells were removed from the incubator and the culture medium removed. Cells were washed with 5 ml of Dulbecco's PBS (DPBS) calcium and magnesium free and detached by the addition of 3 ml Versene (Invitrogen, Italy) followed by a brief incubation at 37° C. for 5 minutes. The flask was tapped to dislodge cells and 10 ml of DPBS containing calcium and magnesium was added to prepare a cell suspension. The cell suspension was then placed into a 15 ml centrifuge tube and centrifuged for 2 min at 1200 rpm. After centrifugation, the supernatant was removed and the cell pellet re-suspended in 4 ml of DPBS containing calcium and magnesium using a 5 ml pipette to break up the pellet. Cell suspension volume was then corrected to give a cell concentration for the assay of approximately 3 million cells per ml.
Experiments were conducted at room temperature using IonWorks Quattro™ planar array electrophysiology technology (Molecular Devices Corp.) with PatchPlate™ PPC. Stimulation protocols and data acquisition were carried out using a microcomputer (Dell Pentium 4). Planar electrode hole resistances(Rp) were determined by applying a 10 mV voltage step across each well. These measurements were performed before cell addition. […] Following this, amphotericin-B solution was added to the intracellular face of the electrode to achieve intracellular access. Cells were held at −70 mV. Leak subtraction was conducted in all experiments by applying 50 ms hyperpolarizing (10 mV) prepulses to evoke leak currents followed by a 20 ms period at the holding potential before test pulses. From the holding potential of −70 mV, a first test pulse to −15 mV was applied for 100 ms and following a further 100 ms at −70 mV, a second pulse to 40 mV was applied for 50 ms. Cells were then maintained for a further 100 ms at −100 mV and then a voltage ramp from −100 mV to 40 mV was applied over 200 ms. In all experiments, the test pulses protocol was performed in the absence (pre-read) and presence (post-read) of the test compound. Pre- and post-reads were separated by the compound addition followed by a 3 minute incubation.
The intracellular solution contained the following (in mM): K-gluconate 100, KCl 54, MgCl2 3.2, HEPES 5, adjusted to pH 7.3 with KOH. Amphotericin-B solution was prepared as 50 mg/ml stock solution in DMSO and diluted to a final working concentration of 0.1 mg/ml in intracellular solution.
The final assay dilution was 200 and the final compound concentrations were in the range 50 μM to 50 nM.
The recordings were analysed and filtered using both seal resistance (>20 MΩ) and peak current amplitude (>500 pA at the voltage step of 40 mV) in the absence of compound to eliminate unsuitable cells from further analysis. Kv3 channel-mediated outward currents were measured determined from the mean amplitude of the current over the final 10 ms of the −15 mV voltage pulse minus the mean baseline current at −70 mV over a 10 ms period just prior to the −15 mV step. This Kv3 channel currents following addition of the test compound were then compared with the currents recorded prior to compound addition. […] The normalised data were analysed using ActivityBase or Excel software.

CC[C@H]1NC(=O)N(c2ccc(Oc3ccc(C)c(OC)c3)nc2)C1=O [RE1, (5R)-5-ethyl-3-(6-{[4-methyl-3-(methyloxy)phenyl]oxy}-3-pyridinyl)-2,4-imidazolidinedione]
Tauact mean: 9.9 ms
